According to publication PMC6747088, “THP-1 Cells and Pro-Inflammatory Cytokine Production: An In Vitro Tool for Functional Characterization of NOD1/NOD2 Antagonists” (International Journal of Molecular Sciences, 2019):

Legend:
NOD2 [1] = target: T1, NOD2 (Homo sapiens, UniProt Q9HC29); assay: MDP (NOD2 agonist)-induced IL-8 secretion from THP-1 cells; format: cell-based; details: 1 h pretreatment, MDP 10 µM, 20 h, read-out: IC50 (NOD2), inhibition of IL-8 release
T1 construct: THP-1 cells also express high levels of native functional NOD1 and NOD2 and respond to NOD stimulation by IL-8 secretion; endogenous in cells; host or cells: THP-1 cells (Istituto Zooprofilattico di Brescia)
T1 sequence (Q9HC29 whole entry): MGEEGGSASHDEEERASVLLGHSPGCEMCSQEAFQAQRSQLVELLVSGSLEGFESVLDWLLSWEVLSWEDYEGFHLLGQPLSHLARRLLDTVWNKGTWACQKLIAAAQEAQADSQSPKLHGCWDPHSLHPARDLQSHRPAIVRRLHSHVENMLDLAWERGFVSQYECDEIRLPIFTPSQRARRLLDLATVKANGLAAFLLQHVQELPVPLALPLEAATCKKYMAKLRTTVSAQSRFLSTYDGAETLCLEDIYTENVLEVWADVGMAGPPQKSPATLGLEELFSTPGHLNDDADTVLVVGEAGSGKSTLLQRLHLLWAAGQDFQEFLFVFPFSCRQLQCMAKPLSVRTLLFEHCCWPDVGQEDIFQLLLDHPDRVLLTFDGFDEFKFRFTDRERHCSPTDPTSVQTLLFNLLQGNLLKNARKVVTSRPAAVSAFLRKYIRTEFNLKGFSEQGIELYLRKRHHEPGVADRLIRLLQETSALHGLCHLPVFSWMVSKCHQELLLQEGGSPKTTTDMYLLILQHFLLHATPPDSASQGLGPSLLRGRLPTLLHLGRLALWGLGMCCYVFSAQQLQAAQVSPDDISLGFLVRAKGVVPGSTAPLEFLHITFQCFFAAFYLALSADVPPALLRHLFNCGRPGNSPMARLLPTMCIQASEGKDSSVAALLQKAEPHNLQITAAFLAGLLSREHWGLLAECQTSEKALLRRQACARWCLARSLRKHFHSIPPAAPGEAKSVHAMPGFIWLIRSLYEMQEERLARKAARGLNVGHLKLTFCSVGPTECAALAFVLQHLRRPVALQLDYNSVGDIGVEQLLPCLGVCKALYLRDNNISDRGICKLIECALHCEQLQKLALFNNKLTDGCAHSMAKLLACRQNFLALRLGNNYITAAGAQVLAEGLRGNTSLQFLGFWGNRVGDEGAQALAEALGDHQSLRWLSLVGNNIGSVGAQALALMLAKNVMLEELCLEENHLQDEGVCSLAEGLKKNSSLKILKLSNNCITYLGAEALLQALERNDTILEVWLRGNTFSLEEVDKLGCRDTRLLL
Description: (§1) For all experiments, THP-1 cells (Istituto Zooprofilattico di Brescia, Brescia, Italy) were diluted to 10^6 cells/mL in RPMI 1640 containing 2 mM L-glutamine, 0.1 mg/mL streptomycin, 100 IU/mL penicillin, 50 μM 2-mercaptoethanol, and supplemented with 10% heat-inactivated fetal calf serum (media) and cultured at 37 °C in 5% CO2. The experiments were carried out on passages 3–12. To evaluate IL-8 and TNF-α production, cultures were set up in 24-well culture plates containing 500 μL of cells. They were pretreated with selected NOD antagonists at increasing concentrations for 1 h before the addition of either MDP or C12-iE-DAP (both at 10 µM) and then incubated for 20 h. Each concentration was tested in duplicate, and untreated cells were exposed to DMSO, which represented the vehicle control (not exceeding 0.2% final concentration). In synergy studies, cells were additionally stimulated with lipopolysaccharide (LPS, from Escherichia coli serotype 0127:B8, Sigma) at a final concentration of 1–10 ng/mL, as indicated in the figure legends. Cell-free supernatants were collected at 20 h by centrifugation at 3000 rpm for 5 min and stored at −80 °C.
(§2) IL-8 and TNF-α release from THP-1 cells were measured in cell-free supernatants obtained by centrifugation at 3000 rpm for 5 min and stored at −80 °C until measurement. IL-8 and TNF-α production were assessed by specific sandwich ELISA (Immunotools, Friesoythe, Germany; eBioScience/R&D Systems, Minneapolis, MN, USA). Results are expressed in pg/mL. The limit of detection was 15.6 pg/mL for IL-8 and 4 pg/mL for TNF-α.
All experiments were performed at least three times, with average values expressed as means ± standard deviation (SD). Statistical analyses were performed using GraphPad Prism 6 (La Jolla, CA, USA). Statistical significance was determined either with the Mann-Whitney or Kruskal-Wallis followed by a post hoc Dunn’s multiple comparison test, as indicated in the figure legends. Differences were considered nonsignificant for p > 0.05, significant (*) for p < 0.05, very significant (**) for p < 0.01 and extremely significant (***) for p < 0.001. IC50 values of NOD1/2 inhibition were calculated by a nonlinear regression model using GraphPad Prism 6 software.

NOD2 [2] = details: reporter assay, NOD-overexpressing HEK cells; cited from earlier work
THP-1 cells [3] = assay: IL-8 and TNF-α release from THP-1 cells treated with the compound alone or with LPS; format: cell-based, human; details: 20 h; for TNF-α release from naive THP-1 cells: agonist alone; for IL-8 release from naive THP-1 cells: MDP 2–200 µM, C12-iE-DAP 2–50 µM; for effect on LPS-induced TNF-α production: agonist 10 µM in combination with 1 ng/mL LPS
Description: THP-1 cells represent a convenient, robust, and reproducible alternative, which enables intra-assay comparison. A consistent protocol is of key importance to evaluate the compounds in a reproducible and unbiased manner. […] Recognition of an NOD1/NOD2 agonist triggers a signaling pathway leading to the activation of NF-κB and the production of pro-inflammatory cytokines (e.g., TNF-α, IL-1β, IL-6, IL-8). To define the optimal experimental conditions, preliminary experiments were conducted with C12-iE-DAP (lauroyl-γ-D-glutamyl-meso-diaminopimelic acid), an acylated derivative of iE-DAP, as a reference NOD1 agonist, and MDP as a NOD2 agonist. For isolated stimulation of NOD2 and NOD1 receptors, increasing concentrations of MDP (2–200 µM) and C12-iE-DAP (2–50 µM) were used, and the exposure time of 20 h was chosen based on previous experiments using THP-1 cells.
Figure 1 Dose-dependent effect of NOD1/NOD2 agonists on IL-8 (A) and TNF-α (B) secretion from THP-1 cells. IL-8 and TNF-α release from THP-1 cells were measured following 20 h treatment with increasing concentrations (up to 200 µM) of either C12-iE-DAP (NOD1 agonist) or MDP (NOD2 agonist). Columns represent means of duplicates ± SD of three independent experiments; * p < 0.05 vs. CTRL (Mann–Whitney test). Synergy of NOD1/NOD2 agonists and LPS (TLR4 agonist) on IL-8 (C) and TNF-α (D) secretion. IL-8 and TNF-α release from THP-1 cells were measured following 20 h treatment with either C12-iE-DAP or MDP, both at 2 and 10 µM, in the presence or absence of increasing concentrations of LPS (1 or 10 ng/mL). Columns represent means of duplicates ± SD of three independent experiments; * p < 0.05 vs. CTRL (Mann–Whitney test).
as §1, §2

NOD1 [4] = target: T2, NOD1 (Homo sapiens, UniProt Q9Y239); assay: C12-iE-DAP (NOD1 agonist)-induced IL-8 secretion from THP-1 cells; format: cell-based; details: 1 h pretreatment, C12-iE-DAP 10 µM, 20 h, read-out: IC50 (NOD1), inhibition of IL-8 release
T2 construct: THP-1 cells also express high levels of native functional NOD1 and NOD2 and respond to NOD stimulation by IL-8 secretion; endogenous in cells; host or cells: THP-1 cells (Istituto Zooprofilattico di Brescia)
T2 sequence (Q9Y239 1-953): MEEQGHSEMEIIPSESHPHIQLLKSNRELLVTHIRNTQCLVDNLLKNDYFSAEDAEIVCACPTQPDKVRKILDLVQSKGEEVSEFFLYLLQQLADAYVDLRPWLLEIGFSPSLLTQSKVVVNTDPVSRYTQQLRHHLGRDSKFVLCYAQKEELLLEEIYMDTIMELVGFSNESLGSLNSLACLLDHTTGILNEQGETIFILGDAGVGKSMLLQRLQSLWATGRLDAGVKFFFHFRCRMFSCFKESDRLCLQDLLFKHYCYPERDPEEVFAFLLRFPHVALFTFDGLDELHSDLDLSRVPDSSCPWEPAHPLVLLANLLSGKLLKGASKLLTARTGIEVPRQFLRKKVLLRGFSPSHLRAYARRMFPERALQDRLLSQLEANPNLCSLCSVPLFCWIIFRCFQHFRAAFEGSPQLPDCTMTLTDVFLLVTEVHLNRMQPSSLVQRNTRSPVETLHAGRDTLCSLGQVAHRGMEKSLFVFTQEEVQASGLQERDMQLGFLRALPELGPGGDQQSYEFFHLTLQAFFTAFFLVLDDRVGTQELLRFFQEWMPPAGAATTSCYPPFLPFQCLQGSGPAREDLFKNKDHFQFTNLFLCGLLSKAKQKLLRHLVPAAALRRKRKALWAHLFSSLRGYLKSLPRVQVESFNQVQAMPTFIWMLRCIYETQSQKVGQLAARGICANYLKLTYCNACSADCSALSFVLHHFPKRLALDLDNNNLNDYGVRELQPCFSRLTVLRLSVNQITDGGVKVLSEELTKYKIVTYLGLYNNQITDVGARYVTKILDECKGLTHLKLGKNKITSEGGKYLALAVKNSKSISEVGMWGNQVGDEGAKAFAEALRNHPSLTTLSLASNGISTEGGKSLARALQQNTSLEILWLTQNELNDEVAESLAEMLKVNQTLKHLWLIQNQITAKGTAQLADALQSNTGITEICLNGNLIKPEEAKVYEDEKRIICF
Description: For all experiments, THP-1 cells (Istituto Zooprofilattico di Brescia, Brescia, Italy) were diluted to 10^6 cells/mL in RPMI 1640 containing 2 mM L-glutamine, 0.1 mg/mL streptomycin, 100 IU/mL penicillin, 50 μM 2-mercaptoethanol, and supplemented with 10% heat-inactivated fetal calf serum (media) and cultured at 37 °C in 5% CO2. The experiments were carried out on passages 3–12. To evaluate IL-8 and TNF-α production, cultures were set up in 24-well culture plates containing 500 μL of cells. They were pretreated with selected NOD antagonists at increasing concentrations for 1 h before the addition of either MDP or C12-iE-DAP (both at 10 µM) and then incubated for 20 h. Each concentration was tested in duplicate, and untreated cells were exposed to DMSO, which represented the vehicle control (not exceeding 0.2% final concentration). […] Cell-free supernatants were collected at 20 h by centrifugation at 3000 rpm for 5 min and stored at −80 °C.

THP-1 cells [5] = assay: LDH leakage cytotoxicity in THP-1 cells; format: cell-based, human; details: 20 h
Description: Prior to investigating the effects of selected NOD antagonists on cytokine production, their potential cytotoxicity for THP-1 cells was assessed. Cell viability was assessed by leakage of LDH from damaged cells. LDH is a well-known indicator of cell membrane integrity and cell viability. Cells were treated for 20 h with the compound of interest at concentrations of up to 50 µM. LDH activity was determined in cell-free supernatants using a commercially available colorimetric kit (Takara Bio Inc., Kusatsu, Japan). Results are expressed as OD.

NOD1/2–TLR4 synergy = assay: NOD1/2–TLR4 synergy: TNF-α release from co-stimulated THP-1 cells; format: cell-based, human; details: antagonist 10 µM 1 h, NOD agonist 10 µM + LPS 1 ng/mL, 20 h
Description: Figure 5 Effect of selected NOD1/NOD2 antagonists on NOD1/2–TLR4 synergy. The THP-1 cells were preincubated for 1 h with NOD antagonists (at 10 µM) before being stimulated with either C12-iE-DAP or MDP (both at 10 µM) and 1 ng/mL LPS for 20 h, followed by determination of TNF-α release in the supernatant. Columns represent means of duplicates ± SD of three independent experiments. * p < 0.05, ** p < 0.01 and *** p < 0.001 vs. MDP/LPS- or C12-iE-DAP/LPS-treated cells (Kruskal-Wallis test and post hoc Dunn’s multiple comparison test).
For all experiments, THP-1 cells (Istituto Zooprofilattico di Brescia, Brescia, Italy) were diluted to 10^6 cells/mL in RPMI 1640 containing 2 mM L-glutamine, 0.1 mg/mL streptomycin, 100 IU/mL penicillin, 50 μM 2-mercaptoethanol, and supplemented with 10% heat-inactivated fetal calf serum (media) and cultured at 37 °C in 5% CO2. The experiments were carried out on passages 3–12. To evaluate IL-8 and TNF-α production, cultures were set up in 24-well culture plates containing 500 μL of cells. […]
as §2, with “Results are expressed in pg/mL. The limit of detection was 15.6 pg/mL for IL-8 and 4 pg/mL for TNF-α.” left out

NOD1 [6] = details: reporter assay, NOD-overexpressing HEK cells; cited from earlier work

Row | Structure (SMILES) | IC50 (NOD2 [1]) [µM] | IC50 (NOD1 [4]) [µM] | IC50 (NOD2 [2]) [µM] | TNF-α release from naive THP-1 cells (THP-1 cells [3]) | IL-8 release from naive THP-1 cells (THP-1 cells [3]) | effect on LPS-induced TNF-α production (THP-1 cells [3]) | concentrations showing cytotoxicity (LDH leakage) (THP-1 cells [5]) [µM] | effect on TNF-α release from co-stimulated cells (NOD1/2–TLR4 synergy) | IC50 (NOD1 [6]) [µM]
1 | Cc1ccc(S(=O)(=O)n2c(N)nc3ccccc32)cc1 [ML130] | > 50 | – | 54.9 | – | – | – | – | – | –
2 | CCCCCCCCCCCC(=O)N[C@H](CCC(=O)N[C@@H](CCC[C@@H](N)C(=O)O)C(=O)O)C(=O)O [C12-iE-DAP, lauroyl-γ-D-glutamyl-meso-diaminopimelic acid] | – | – | – | neither MDP nor C12-iE-DAP produced substantial TNF-α release | dose-dependent increase in IL-8 release | significantly potentiated the production of TNF-α | – | – | –
3 | O=C(Cn1c(CCNC(=O)c2ccccc2)nc2ccccc21)Nc1ccc2c(c1)CCC2 [GSK669] | 1.57 ± 0.15 | > 50 | 3.2 | – | – | – | ≥ 10 | reduced TNF-α release to the level induced by the TLR4 agonist alone | > 50
4 | CC(=O)N[C@H]1C(O)O[C@H](CO)[C@@H](O)[C@@H]1O[C@H](C)C(=O)N[C@@H](C)C(=O)N[C@H](CCC(=O)O)C(N)=O (mixture of isomers) [MDP, muramyl dipeptide] | – | – | – | neither MDP nor C12-iE-DAP produced substantial TNF-α release | dose-dependent increase in IL-8 release | significantly potentiated the production of TNF-α | – | – | –

More lines, main results first:

Row | IC50 (NOD2 [1]) [µM] | IC50 (NOD1 [4]) [µM] | Structure (SMILES) | IC50 (NOD2 [2]) [µM] | TNF-α release from naive THP-1 cells (THP-1 cells [3]) | IL-8 release from naive THP-1 cells (THP-1 cells [3]) | effect on LPS-induced TNF-α production (THP-1 cells [3]) | concentrations showing cytotoxicity (LDH leakage) (THP-1 cells [5]) [µM] | effect on TNF-α release from co-stimulated cells (NOD1/2–TLR4 synergy) | IC50 (NOD1 [6]) [µM]
5 | 32.2 ± 5.16 | 10.5 ± 1.32 | C/C=C/Cn1c(=O)c2[nH]c(SCCCc3ccccc3)nc2n(C)c1=O [ML146] | 12.9 | – | – | – | – | – | 4.35
6 | 14.4 ± 1.97 | 27.5 ± 6.85 | CCOC(=O)c1cc2ccccc2n1S(=O)(=O)c1ccc(C)cc1 [SZA-39] | 6.45 | – | – | – | – | – | 5.74
